The record followed here is patent US9796753B2, “N-substituted indenoisoquinolines and syntheses thereof” (Purdue Research Foundation, priority 2005, dated 2017).

One data set deals with breast MDA-MB-435. As to the kind of experiment: COMPARE screening (NCI human cancer cell line screen), cytotoxicity GI50. The class given is cell-based. Conditions: Homo sapiens, MDA-MB-435, read-out: cytotoxicity (GI50) breast MDA-MB-435.
In data set [1] the test system is all human cancer cell lines successfully tested. As to the kind of experiment: NCI screen mean graph midpoint (MGM) for growth inhibition. The class given is cell-based. The conditions noted are these: Table 1; average GI50 of all cell lines tested (approximately 55), test range 10^−8 to 10^−4 molar. The gist of the method: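 NCI60 panel cells exposed to compound at 100, 10, 1, 0.1 and 0.01 μM for 48 h, then sulforhodamine B staining. Percentage growth versus control plotted against log concentration; MGM is the midpoint across all lines tested.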

Another data set relates to prostate DU-145. The data set can be described thus: COMPARE screening (NCI human cancer cell line screen), cytotoxicity GI50. The class given is cell-based. The conditions noted are these: Homo sapiens, DU-145, read-out: cytotoxicity (GI50) prostate DU-145. In short, it runs like this:
(§1)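 Read-out is sulforhodamine B optical density, expressed as a ratio to untreated control and plotted as percentage growth against log10 compound concentration. Exposure lasted 48 h at five concentrations from 100 to 0.01 μM in the NCI60 screen.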

For a further data set, the system named is lung HOP-62. The data set is described as above. The class given is cell-based. Conditions: Homo sapiens, HOP-62, read-out: cytotoxicity (GI50) lung HOP-62. The gist of the method: as §1
The next data set relates to colon HCT-116. Described as above. The class given is cell-based. The conditions noted are these: Homo sapiens, HCT-116, read-out: cytotoxicity (GI50) colon HCT-116. The gist of the method: as §1
The next data set deals with melanoma UACC-62. Described as above. Conditions: Homo sapiens, UACC-62, read-out: cytotoxicity (GI50) melanoma UACC-62. In kind it is cell-based. The gist of the method: as §1
Another data set has as its system ovarian OVCAR-3. The description is as above. The class given is cell-based. Conditions: Homo sapiens, OVCAR-3, read-out: cytotoxicity (GI50) ovarian OVCAR-3. The gist of the method: as §1
For the next data set, the system named is CNS SF-539. The description is as above. Conditions: Homo sapiens, CNSSF-539, read-out: cytotoxicity (GI50) CNS SF-539. In kind it is cell-based. The gist of the method: as §1
The next data set relates to renal SN12C. Described as above. In kind it is cell-based. Conditions: Homo sapiens, SN12C, read-out: cytotoxicity (GI50) renal SN12C. In short, it runs like this: as §1
A further data set concerns the target T1, Human recombinant Top1 (Homo sapiens, UniProt P11387).
T1 construct: made in house
T1 sequence (P11387 1-765): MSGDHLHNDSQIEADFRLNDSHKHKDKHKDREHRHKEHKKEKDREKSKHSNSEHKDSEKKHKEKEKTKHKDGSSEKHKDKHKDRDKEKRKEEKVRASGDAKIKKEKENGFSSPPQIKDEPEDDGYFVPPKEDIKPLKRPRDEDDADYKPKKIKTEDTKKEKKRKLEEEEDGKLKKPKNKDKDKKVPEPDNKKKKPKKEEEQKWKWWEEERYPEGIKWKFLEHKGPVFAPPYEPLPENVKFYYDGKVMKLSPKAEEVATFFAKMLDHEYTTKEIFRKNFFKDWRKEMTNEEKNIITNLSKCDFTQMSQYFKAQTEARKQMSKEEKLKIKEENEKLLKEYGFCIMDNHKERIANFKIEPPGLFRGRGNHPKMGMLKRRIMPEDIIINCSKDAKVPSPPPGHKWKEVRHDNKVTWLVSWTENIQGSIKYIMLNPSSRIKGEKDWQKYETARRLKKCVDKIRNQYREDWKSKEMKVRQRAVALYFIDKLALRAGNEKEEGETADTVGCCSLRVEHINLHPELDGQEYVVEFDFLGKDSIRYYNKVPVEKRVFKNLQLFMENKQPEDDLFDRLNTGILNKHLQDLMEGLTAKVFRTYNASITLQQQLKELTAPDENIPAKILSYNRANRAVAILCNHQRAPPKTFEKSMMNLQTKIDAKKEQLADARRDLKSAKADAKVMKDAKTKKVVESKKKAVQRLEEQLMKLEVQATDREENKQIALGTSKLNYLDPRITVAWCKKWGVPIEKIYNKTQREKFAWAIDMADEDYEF
As to the kind of experiment: Topoisomerase 1-mediated DNA cleavage reactions (B), 117-bp DNA oligonucleotide. In kind it is biochemical. On the set-up: key to Top1 inhibitory activity (level): 0, no detectable activity; +, weak activity; ++, similar activity to compound 33; +++, greater activity than 33; ++++, equipotent to 32; Ambiguous scores (e.g., between two values) are designated with parentheses (e.g., ++(+) would be between ++ and +++); key to Top1 (compound-induced DNA cleavage due to Top1 inhibition): 0, no detectable activity; +, weak activity; ++, similar activity to compound 5; +++, greater activity than 34; ++++ , equipotent to 32; The (+) ranking indicates the activity lies between two given values. Conditions: Table 5; for Top1 inhibitory activity (level): relative to compounds 32 and 33; for Top1 (compound-induced DNA cleavage due to Top1 inhibition): semiquantitative scale relative to 1 μM camptothecin (32) or MJ-III-65 (34). The method, then: Human recombinant Top1 was purified from baculovirus as described in Bailly, C. Curr. Med. Chem. 2000, 7, 39-58. DNA cleavage reactions were prepared as previously reported with the exception of the DNA substrate in Saltz, et al. Oncologist 1997, 2, 402-409.
Approximately 2 nM radiolabeled DNA substrate was incubated with recombinant Top1 in 20 μL of reaction buffer [10 mM Tris-HCl (pH 7.5), 50 mM KCl, 5 mM MgCl2, 0.1 mM EDTA, and 15 μg/mL BSA] at 25° C. for 20 min in the presence of various concentrations of compounds. […] Aliquots of each reaction mixture were subjected to 20% denaturing PAGE. Gels were dried and visualized using a phosphoimager and ImageQuant software (Molecular Dynamics).
All of the new indenoisoquinoline derivatives with C-2 side chains were tested in Top1-mediated DNA cleavage assays. For this purpose, a ^32P 3′-end labeled 117-bp DNA fragment was incubated with Top1 and four 10-fold dilutions starting from 100 μM of a tested compound. The DNA fragments were separated on 20% PAGE denaturing gels. The Top1 inhibitory activities were assigned on the basis of the visual inspection of the number and intensities of the gel bands corresponding to Top1-mediated DNA cleavage fragments. […] Ambiguous scores (e.g., between two values) are designated with parentheses (e.g., ++(+) would be between ++ and +++).

The target in the next data set is recombinant TDP1 (Homo sapiens, UniProt Q9NUW8). As to the kind of experiment: Gel-based assay measuring the inhibition of recombinant TDP1. The conditions noted are these: for IC50: Table 5, determined in duplicate. In kind it is biochemical. The method, then:
A 5′-[^32P]-labeled single-stranded DNA oligonucleotide containing a 3′-phosphotyrosine (N14Y) was generated as described by Dexheimer et al. (J. Med. Chem. 2009, 52, 7122-7131). The DNA substrate was then incubated with 5 μM recombinant TDP1 in the absence or presence of inhibitor for 15 min at room temperature in a buffer containing 50 mM Tris HCl, pH 7.5, 80 mM KCl, 2 mM EDTA, 1 mM DTT, 40 μg/ml BSA and 0.01% Tween-20. Reactions were terminated by the addition of 1 volume of gel loading buffer [99.5% (v/v) formamide, 5 mM EDTA, 0.01% (w/v) xylene cyanol, and 0.01% (w/v) bromophenol blue]. Samples were subjected to a 16% denaturing PAGE and gels were exposed after drying to a PhosphorImager screen (GE Healthcare). Gel images were scanned using a Typhoon 8600 (GE Healthcare) and densitometric analyses were performed using the ImageQuant software (GE Healthcare).
The TDP1 inhibitory activities of the O-2-substituted indenoisoquinolines were measured by determining their abilities to inhibit the hydrolysis of the phosphodiester linkage between tyrosine and the 3′-end of a DNA oligonucleotide substrate and thus prevent the generation of an oligonucleotide with a free 3′-phosphate (N14P, Scheme 13). Therefore, the disappearance of the gel band for N14P indicates TDP1 inhibition.
Tyrosyl-DNA phosphodiesterase 1 (TDP1) is a DNA repair enzyme that repairs cytotoxic DNA damage induced by Top1 inhibitors.

[2] abbreviates: read-out: TDP1 (IC50, semiquantitative scale).
Where [3] appears, read: read-out: TDP1 inhibitory activity (potency score).

Like-named read-outs stand apart in the source and are kept apart here.

Sequence of recombinant TDP1 (Q9NUW8 whole entry): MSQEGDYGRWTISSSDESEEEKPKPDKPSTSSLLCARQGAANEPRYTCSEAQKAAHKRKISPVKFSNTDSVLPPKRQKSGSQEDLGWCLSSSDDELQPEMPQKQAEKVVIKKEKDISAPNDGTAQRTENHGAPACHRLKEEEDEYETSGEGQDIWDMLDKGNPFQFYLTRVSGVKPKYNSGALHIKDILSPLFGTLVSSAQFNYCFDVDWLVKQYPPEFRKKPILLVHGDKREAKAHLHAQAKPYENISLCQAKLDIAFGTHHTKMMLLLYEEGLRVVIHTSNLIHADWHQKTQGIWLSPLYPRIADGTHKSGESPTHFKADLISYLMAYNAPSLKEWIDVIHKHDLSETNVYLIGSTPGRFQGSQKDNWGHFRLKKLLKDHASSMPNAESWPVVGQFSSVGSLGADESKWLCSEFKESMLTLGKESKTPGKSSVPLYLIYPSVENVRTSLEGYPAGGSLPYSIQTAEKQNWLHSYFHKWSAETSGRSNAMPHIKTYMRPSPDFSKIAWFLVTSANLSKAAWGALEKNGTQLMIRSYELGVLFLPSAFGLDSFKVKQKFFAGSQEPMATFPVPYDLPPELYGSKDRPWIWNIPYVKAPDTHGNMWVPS
Experimental for breast MDA-MB-435: COMPARE screening. The compounds described herein were examined for antiproliferative activity against the human cancer cell lines in the National Cancer Institute screen (COMPARE screening), in which the activity of each compound was evaluated with approximately 55 different cancer cell lines of diverse tumor origins. […] Therefore, the MGM value represents an overall assessment of toxicity of the compound across numerous cell lines.

In the case of `Cl.NCCCCCCCn1c2c(c3ccccc3c1=O)C(=O)c1ccccc1-2` [Compound 5aq, 6-(7-Aminoheptyl)-5,6-dihydro-5,11-dioxo-11H-indeno[1,2-c]isoquinoline Hydrochloride], the melting point was 228 to 231 °C. The GI50 in the data set with breast MDA-MB-435 was determined as 2.24 µM. Moreover, the “MGM (mean graph midpoint for growth inhibition)” value in data set [1] worked out at 1.66 ± 0.155 µM. Further, in the data set with prostate DU-145, the concentration for 50% growth inhibition (GI50) came out at 0.832 µM. The GI50 in the data set with lung HOP-62 is 1.2 µM. Besides, the GI50 with colon HCT-116 was determined as 1.26 µM. Also, the concentration for 50% growth inhibition (GI50) in the data set on melanoma UACC-62 worked out at 2 µM. Further, the 50% growth inhibitory concentration (GI50) in the data set on ovarian OVCAR-3 came to 1.7 µM. In addition, the concentration for 50% growth inhibition (GI50) in the data set on CNS SF-539 worked out at 1.78 µM. Further, in the data set on renal SN12C, the GI50 was found to be 1.66 µM.
`Cl.NCCCCCCCCCCCCn1c2c(c3ccccc3c1=O)C(=O)c1ccccc1-2` [Compound 5av, 6-(12-Aminododecyl)-5,6-dihydro-5,11-dioxo-11H-indeno[1,2-c]isoquinoline Hydrochloride] yielded a melting point of 175 to 178 °C. For the same compound, in the data set with breast MDA-MB-435, the GI50 was 19.5 µM. This compound also came in with an MGM (mean GI50 across cell lines) in data set [1] of 18.2 µM. Also, the GI50 in the data set with prostate DU-145 was 19.1 µM. The GI50 in the data set with lung HOP-62 is 17 µM. Besides, in the data set with melanoma UACC-62, the GI50 was determined as 14.8 µM. In addition, in the data set on ovarian OVCAR-3, the GI50 came to 17.8 µM. For the same compound, the GI50 in the data set with CNS SF-539 was 18.2 µM. Further, the GI50 in the data set on renal SN12C was found to be 13.5 µM.
Regarding `COC1C=c2c3c([nH]c(=O)c2=CC1(CCCN1CCOCC1)OC)-c1cc2c(cc1C3=O)OCO2` (centres unmarked) [Compound 5q, 3-[(Morpholin-4-yl)-1-propyl]-5,6-dihydro-2,3-dimethoxy-8,9-methylenedioxy-5,11-dioxo-11H-indeno[1,2-c]isoquinoline], the melting point fell in the range of 290 to 292 °C.
Still for that read-out and setting: the value for `COC1C=c2c3c([nH]c(=O)c2=CC1(CCCN1CCSCC1)OC)-c1cc2c(cc1C3=O)OCO2` (centres unmarked) [Compound 5r, 3-[(Thiomorpholin-4-yl)-1-propyl]-5,6-dihydro-2,3-dimethoxy-8,9-methylenedioxy-5,11-dioxo-11H-indeno[1,2-c]isoquinoline] was 306 to 308 °C; that for `COc1cc2c3c(n(CCCNCCC4COCCN4)c(=O)c2cc1OC)-c1cc2c(cc1C3=O)OCO2` (centres unmarked) [Compound 5x, 6-[(3-Morpholylethylamino)-1-propyl]-5,6-dihydro-2,3-dimethoxy-8,9-methylenedioxy-5,11-dioxo-11H-indeno[1,2-c]isoquinoline] was 215 to 217 °C.
The same measure, in the same setting: the value for `COc1cc2c(=O)n(CCCN3CCOCC3)c3c(c2cc1OCCCBr)C(=O)c1cc2c(cc1-3)OCO2` [Compound 19, 2-(3-Bromopropoxy)-3-methoxy-6-(3-morpholinopropyl)-5H-[1,3]dioxolo[4′,5′: 5,6]indeno[1,2-c]isoquinoline-5,12(6H)-dione] was 197 to 199 °C.
`COc1cc2c(=O)n(CCCN3CCOCC3)c3c(c2cc1OCCCN(C)C)C(=O)c1cc2c(cc1-3)OCO2` [Compound 23, 2-(3-(Dimethylamino)propoxy)-3-methoxy-6-(3-morpholinopropyl)-5H-[1,3]dioxolo[4′,5′:5,6]indeno[1,2-c]isoquinoline-5,12(6H)-dione]: at Human recombinant Top1, the “Top1 inhibitory activity (level)” value is listed as “+++” and the “Top1 (compound-induced DNA cleavage due to Top1 inhibition)” value is recorded as “+++”. Moreover, the IC50 on recombinant TDP1 (setting [2]) lay within 12 to 37 µM. The IC50 at recombinant TDP1 (setting [3]) lay in the range of 12 to 37 µM.
For `CCNCCCOc1cc2c3c(n(CCCN4CCOCC4)c(=O)c2cc1OC)-c1cc2c(cc1C3=O)OCO2` [Compound 24, 2-(3-(Ethylamino)propoxy)-3-methoxy-6-(3-morpholinopropyl)-5H-[1,3]dioxolo [4′,5′:5,6]indeno[1,2-c]isoquinoline-5,12(6H)-dione], at Human recombinant Top1, the “Top1 inhibitory activity (level)” value is “+++” and the “Top1 (compound-induced DNA cleavage due to Top1 inhibition)” value is listed as “+++”. Also, the IC50 at recombinant TDP1 (setting [2]) was 12 to 37 µM. The IC50 on recombinant TDP1 (setting [3]) was in the range of 12 to 37 µM.
Consider `COc1cc2c(=O)n(CCCN3CCOCC3)c3c(c2cc1OCCCN1CCN(C)CC1)C(=O)c1cc2c(cc1-3)OCO2` [Compound 26, 3-Methoxy-2-(3-(4-methylpiperazin-1-yl)propoxy)-6-(3-morpholinopropyl)-5H-[1,3]dioxolo[4′,5′:5,6]indeno[1,2-c]isoquinoline-5,12(6H)-dione], for which, at Human recombinant Top1, the “Top1 inhibitory activity (level)” value is “+++” and the “Top1 (compound-induced DNA cleavage due to Top1 inhibition)” value is “+++”. Moreover, the “TDP1 inhibitory activity (in words)” value at recombinant TDP1 is recorded as “no TDP1 inhibitory activity was observed”. Also, the IC50 on recombinant TDP1 (setting [2]) is above 111 µM.
`COc1cc2c(=O)n(CCCN3CCOCC3)c3c(c2cc1OCC(=O)NN)C(O)c1cc2c(cc1-3)OCO2` (centres unmarked) [Compound 31, 2-((12-Hydroxy-3-methoxy-6-(3-morpholinopropyl)-5-oxo-6,12-dihydro-5H-[1,3]dioxolo[4′,5′:5,6]indeno[1,2-c]isoquinolin-2-yl)oxy)acetohydrazide]: at Human recombinant Top1, the “Top1 inhibitory activity (level)” value was “+ or ++” and the “Top1 (compound-induced DNA cleavage due to Top1 inhibition)” value is “+”. On recombinant TDP1 (setting [2]), the IC50 is above 111 µM.
